Laboratory results: patent publication US6066642A, “Dihydropyridine-, pyridine-, benzopyran-4-one- and triazoloquinazoline derivative, their preparation and their use as adenosine receptor antagonists” (priority 1998, dated 2000)
Where two headings read alike, the source gives them in different places.

Key:
A1 receptors = molecular target: T1, A1 receptors (Rattus norvegicus, UniProt P25099); assay: biochemical; type: binding; settings: for Ki: [3H]PIA, rat brain membranes; for inhibition at 100 µM: 10^-4 M, read-out: displacement of specific binding rA1
T1 sequence (P25099 1-326): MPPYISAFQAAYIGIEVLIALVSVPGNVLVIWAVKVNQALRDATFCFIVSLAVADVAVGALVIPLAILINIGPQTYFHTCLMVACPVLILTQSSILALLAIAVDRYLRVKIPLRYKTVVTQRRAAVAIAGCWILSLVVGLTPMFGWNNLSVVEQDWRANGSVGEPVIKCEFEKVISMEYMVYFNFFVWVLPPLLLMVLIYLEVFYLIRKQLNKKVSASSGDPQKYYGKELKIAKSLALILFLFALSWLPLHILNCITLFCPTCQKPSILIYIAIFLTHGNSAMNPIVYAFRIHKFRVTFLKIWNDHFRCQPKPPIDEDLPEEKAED
Method: ^a Displacement of specific [^3 H] PIA binding in rat brain
percentage of specific binding displaced at 100 μM.

A2a receptors = molecular target: T2, A2a receptors (Rattus norvegicus, UniProt P30543); assay: radioligand binding, displacement of specific [3H]CGS 21680 binding in rat striatal membranes; settings: for Ki: [3H]CGS 21680, rat striatal membranes; for inhibition at 100 µM: 10^-4 M
T2 construct: Displacement of specific [^3 H]; from tissue; host or cells: rat striatal membranes
Method: ^b Displacement of specific [^3 H]
or as a percentage of specific binding displaced at 100 μM.

rat A3 receptor = molecular target: T3, rat A3 receptor (Rattus norvegicus, UniProt P28647); assay: A3-agonist-elicited inhibition of adenylyl cyclase in membranes from CHO cells stably expressing the rat A3 receptor; type: biochemical; settings: compound 50 μM, 1 μM forskolin
T3 construct: expressed in transfected cells; host or cells: CHO cells (membranes)
T3 sequence (P28647 1-320): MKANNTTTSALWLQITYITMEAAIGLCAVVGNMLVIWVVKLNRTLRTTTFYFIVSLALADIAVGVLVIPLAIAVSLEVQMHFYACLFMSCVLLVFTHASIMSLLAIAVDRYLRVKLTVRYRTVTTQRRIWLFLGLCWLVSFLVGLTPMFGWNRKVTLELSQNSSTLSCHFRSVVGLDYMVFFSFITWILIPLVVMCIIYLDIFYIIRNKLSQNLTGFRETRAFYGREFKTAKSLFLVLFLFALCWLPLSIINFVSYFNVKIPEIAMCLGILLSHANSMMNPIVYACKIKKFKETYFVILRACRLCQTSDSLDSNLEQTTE
Method: ^a Assayed in membranes from CHO cells stably expressing the rat
A3 receptor in the presence of 1 μM forskolin.

[1] = tested on: bak protein in HL-60 cells; assay: expression of apoptosis-inducing protein bak by immunofluorescence, HL-60 cells; type: cell-based; settings: 10 nM
Method: (§1) Cells were fixed as following steps: 10 min with 1% formalin in PBS, 5 min with […] methanol and 2 min with ice cold acetone, then permebilized with 0.1% Nonidet P-40 for 20 min. After the preparation, the specimens were incubated step by step: 10% goat serum in PBS for 20 min, mouse monoclonal anti-bak antibody (5 μg/ml PBS-BSA) for 60 min, Rhodamine (TRITC)-conjugated AffiniPure Goat Anti-mouse IgG (H+L) in PBS-BSA for 60 min. The specimens were washed 3-5 times with PBS after every step. The glass slides were stored at 4° C. in the dark.
(§2) The mechanism of the apoptosis observed in response to either A3 agonists was investigated.

[2] = tested on: bak protein in U-937 cells; assay: expression of apoptosis-inducing protein bak by immunofluorescence, U-937 cells; type: cell-based; settings: 10 nM
Method: as §1, §2

human A3 receptors = molecular target: T4, human A3 receptors (Homo sapiens, UniProt P0DMS8); assay: radioligand binding, displacement of specific [125I]AB-MECA binding at human A3 receptors expressed in HEK-293 cells; settings: for Ki: [125I]AB-MECA; for inhibition at 10 µM: 10^-5 M
T4 construct: expressed in transfected cells; host or cells: HEK-293 cells (membranes)
T4 sequence (P0DMS8 1-318): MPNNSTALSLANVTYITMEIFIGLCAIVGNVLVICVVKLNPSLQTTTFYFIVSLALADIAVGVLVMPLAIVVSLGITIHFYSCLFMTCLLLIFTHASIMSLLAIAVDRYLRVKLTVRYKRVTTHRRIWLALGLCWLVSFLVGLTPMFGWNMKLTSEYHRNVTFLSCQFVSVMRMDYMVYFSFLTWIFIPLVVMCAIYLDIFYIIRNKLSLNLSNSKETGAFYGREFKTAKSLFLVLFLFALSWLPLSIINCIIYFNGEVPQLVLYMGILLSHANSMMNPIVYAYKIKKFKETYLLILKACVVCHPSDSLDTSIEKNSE
Method: A3 receptors expressed in HEK293 cells, in membranes, expressed as
binding displaced at 100 μM.

[3] = IB-MECA 10^-6 M, read-out: % Inhibition of adenylyl cyclase, IB-MECA (10^-6 M)
[4] = IB-MECA 10^-7 M, read-out: % Inhibition of adenylyl cyclase, IB-MECA (10^-7 M)
[5] = Table 15, HEK membranes, read-out: Ki hA3

T2 sequence (P30543 whole entry): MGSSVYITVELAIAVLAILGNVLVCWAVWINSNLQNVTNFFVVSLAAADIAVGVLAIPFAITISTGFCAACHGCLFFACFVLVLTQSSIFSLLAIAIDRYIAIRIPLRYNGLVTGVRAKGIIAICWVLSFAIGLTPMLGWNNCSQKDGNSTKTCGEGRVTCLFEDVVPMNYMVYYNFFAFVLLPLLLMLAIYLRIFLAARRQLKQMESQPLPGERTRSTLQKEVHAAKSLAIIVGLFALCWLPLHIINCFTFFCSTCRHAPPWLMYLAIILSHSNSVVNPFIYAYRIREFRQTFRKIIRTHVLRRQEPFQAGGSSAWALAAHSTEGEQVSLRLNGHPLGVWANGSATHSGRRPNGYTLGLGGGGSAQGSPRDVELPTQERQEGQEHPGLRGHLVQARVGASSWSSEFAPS

SMILES: CCOc1c2ccoc2cc2oc(/C=C/c3ccccc3)cc(=O)c12 [Compound 20, 4-ethyloxy-7-trans-styryl-visnagin]
- Ki (A1 receptors; Table 5, read-out: Ki rA1): 35600 ± 12700 nM
- Ki (A2a receptors; Table 5, read-out: Ki rA2a): 33800 ± 14800 nM
- inhibition at 50 µM (rat A3 receptor; [3]): 40.9 ± 3.7%
- inhibition at 50 µM (rat A3 receptor; [4]): 21.2 ± 3.9%

SMILES: O=c1c(O)c(-c2ccccc2)oc2cc(O)cc(O)c12 [Compound 1, galangin, reference compound]
- Ki (A1 receptors; Table 3, read-out: Ki rA1): 863 ± 92 nM
- Ki (A2a receptors; Table 3, read-out: Ki rA2a): 966 ± 164 nM
- inhibition at 50 µM (rat A3 receptor; [3]): 35.3 ± 7.2%
- inhibition at 50 µM (rat A3 receptor; [4]): 23.7 ± 5.1%

SMILES: O=C(Cc1ccccc1)Nc1nc2ccc(Cl)cc2c2nc(-c3ccco3)nn12 [Compound 153, 9-Chloro-2-(2-furyl)-5-phenylacetylamino[1,2,4]triazolo [1,5-c]quinazoline]
- Ki (A1 receptors; Table 15, read-out: Ki rA1): 305 ± 51 nM
- Ki (A2a receptors; Table 15, read-out: Ki rA2A): 52 ± 8.8 nM
- expression of bak protein, HL-60 [1]: induced
- expression of bak protein, U-937 [2]: induced

SMILES: COc1ccc2c(c1)C(=O)[C@H](O)[C@@H](/C=C/c1ccccc1)O2 (relative stereo) [Compound 15]
- inhibition at 100 µM (A1 receptors; Table 4): < 10%
- inhibition at 100 µM (A2a receptors; Table 4, read-out: displacement of specific binding rA2a): < 10%
- rA1/hA3 (human A3 receptors): > 8
- Ki (human A3 receptors; Table 4, HEK-293 membranes, read-out: Ki hA3): 21100 nM
- inhibition at 50 µM (rat A3 receptor; [3]): 39.2 ± 3%
- inhibition at 50 µM (rat A3 receptor; [4]): 25.9 ± 2.4%

SMILES: CCOc1cc(OCC)c2c(=O)c(OCC)c(-c3ccccc3)oc2c1 [Compound 3a, 3,5,7-Triethoxyflavone]
- Ki (A1 receptors; Table 3, read-out: Ki rA1): 603 nM
- Ki (A2a receptors; Table 3, read-out: Ki rA2a): 3310 nM
- inhibition at 50 µM (rat A3 receptor; [3]): 19.1 ± 7.4%
- inhibition at 50 µM (rat A3 receptor; [4]): 2.2 ± 2.2%

SMILES: COc1ccc(-c2cc(=O)c3c(O)cc(OC)cc3o2)cc1 [Compound 30, reference compound]
- inhibition at 100 µM (A1 receptors; Table 6): < 10%
- inhibition at 100 µM (A2a receptors; Table 6, read-out: displacement of specific binding rA2a): < 10%
- inhibition at 10 µM (human A3 receptors; Table 6, read-out: % inhibition hA3): 69 ± 7%

SMILES: COc1ccc(-c2oc3cc(OC)cc(OC)c3c(=O)c2OC)c(OC)c1 [Compound 38, 2',3,4',5,7-pentamethyloxyflavone]
- Ki (A1 receptors; Table 6, read-out: K2 (rA1)): 27600 ± 7500 nM
- Ki (A2a receptors; Table 6, read-out: K2 (rA2a)): 46700 ± 2700 nM
- Ki (human A3 receptors; Table 6, HEK-293 membranes, read-out: K2 (hA3)): 2650 nM

SMILES: CCOC(=O)c1c(C)nc(-c2ccccc2)c(C(=O)OCc2ccccc2)c1C#Cc1ccccc1 [B]
- Ki (A1 receptors; Table 11, read-out: Ki rA1): 7010 ± 1980 nM
- inhibition at 100 µM (A2a receptors; Table 11, read-out: % inhibition rA2A): 43 ± 2%
- rA1/hA3 (human A3 receptors): 2.6

SMILES: O=c1cc(-c2ccccc2)oc2c1ccc1ccccc12 [Compound 43, α-naphthoflavone, reference compound]
- Ki (A1 receptors; Table 7, read-out: Ki (rA1)): 786 nM
- Ki (A2a receptors; Table 7, read-out: Ki (rA2A)): 1320 ± 430 nM
- inhibition at 10 µM (human A3 receptors; Table 7, read-out: % of specific binding displaced hA3): 71 ± 2%

SMILES: CC(C)(C)C(=O)Nc1nc2ccc(Cl)cc2c2nc(-c3ccco3)nn12 [Compound 149, 9-Chloro-2-(2-furyl)-5-trimethylacetylamino[1,2,4]triazolo [1,5-c]quinazoline]
- Ki (A1 receptors; Table 15, read-out: Ki rA1): 205 ± 20 nM
- Ki (A2a receptors; Table 15, read-out: Ki rA2A): 60 nM
- Ki (human A3 receptors; [5]): 244 ± 6 nM
- rA1/hA3 (human A3 receptors; Table 15, ratio of Ki): 0.84

SMILES: CCCCC(=O)Nc1nc2ccc(Cl)cc2c2nc(-c3ccco3)nn12 [Compound 148, 9-Chloro-2-(2-furyl)-5-pentanoylamino[1,2,4]triazolo[1,5-c]quinazoline]
- Ki (A1 receptors; Table 15, read-out: Ki rA1): 28.9 ± 3.7 nM
- Ki (A2a receptors; Table 15, read-out: Ki rA2A): 16 nM
- Ki (human A3 receptors; [5]): 21.5 ± 6.2 nM
- rA1/hA3 (human A3 receptors; Table 15, ratio of Ki): 1.3

SMILES: CCOC(=O)C1=C(C)NC(C)=C(C(=O)OC)C1c1ccc2c(c1)OCO2 (racemic) [Compound 73, 3-methyl-5-ethyl-2,6-dimethyl-4-[3,4-(methylenedioxy)phenyl]-1,4(R,S)-dihydropyridine-3,5-dicarboxylate]
- Ki (A1 receptors; Table 9, read-out: Ki rA1): 3660 nM
- Ki (A2a receptors; Table 9, read-out: Ki rA2A): 5270 nM
- Ki (human A3 receptors; Table 9, HEK membranes, read-out: Ki hA3): 4580 nM

SMILES: NCCCC(=O)Nc1nc2ccc(Cl)cc2c2nc(-c3ccco3)nn12 [Compound 155]
- Ki (A1 receptors; Table 15, read-out: Ki rA1): 11.3 ± 2.4 nM
- Ki (A2a receptors; Table 15, read-out: Ki rA2A): 14 nM
- Ki (human A3 receptors; [5]): 15.2 ± 6.6 nM

SMILES: COc1c2ccoc2cc2oc(C=O)cc(=O)c12 [Compound 18, 4-Methoxy-7-formyl-5H-furo [3,2-g][1]-benzopyrano-5-one]
- inhibition at 100 µM (A1 receptors; Table 5): < 10%
- inhibition at 100 µM (A2a receptors; Table 5, read-out: % of specific binding displaced rA2a): 25 ± 8%
- Ki (human A3 receptors; Table 5, HEK-293 membranes, read-out: Ki hA3): 88900 ± 27100 nM
- rA1/hA3 (human A3 receptors; Table 5, ratio of Ki): > 2
